In patent US20230218577A1, “USE OF HEAT SHOCK PROTEIN INHIBITORS FOR THE TREATMENT OF NEURODEVELOPMENTAL DISORDERS” (The Children's Medical Center Corporation, priority 2020, published 2023):

Key:
[1] = test system: cilia (ACIII) in ctrl-sh hippocampal neurons; experiment: cilia^HCA in ctrl-sh neurons; type: cell-based, rat; details: four-day dose curve between DIV9-13
Excerpt: To investigate how mTORC1 dysregulation due to neuronal TSC loss affected ciliation, High Content image-based Assays (HCAs) were developed for unbiased quantification of cilia and mTORC1 activity (hereafter cilia^HCA and mTORC1^HCA) in primary neurons. As an in vitro model of TSC, rat hippocampal neurons transduced with lentiviral vectors (LV) expressing a short hairpin RNA (shRNA) were used directed against either the Tsc2 (Tsc2-sh) or the luciferase gene as a control (ctrl-sh) tagged with GFP. […] Both the cilia^HCA and mTORC1^HCA were optimized as imaged-based assays, where cilia and mTORC1 activity was monitored by immunofluorescent staining of ACIII to identify cilia and pS6 as a proxy of mTORC1 activation (FIGS. 8C-F). Neurons were transduced in culture at day in vitro (DIV) 1, and cilia and mTORC1 activity were assessed in a time course experiment at DIV2, 5, 7, 13, and 20 (FIG. 2A). […] Reduced ciliation was validated by manual imaging and quantification of LV-infected neurons co-labeled with ACIII/centrin (FIGS. 8G-H). No changes in size or ACIII intensity were detected in the remaining cilia of the Tsc2-sh neurons (FIGS. 8I-J). […]

[2] = test system: pS6, IGF-IRβ in ctrl-sh neurons; experiment: Western blot of pS6 and IGF-IRβ in ctrl-sh neurons; type: cell-based, rat; details: dose curve

For `C=CCNC1=C2C[C@@H](C)C[C@H](OC)[C@H](O)[C@@H](C)/C=C(\C)[C@H](OC(N)=O)[C@@H](OC)C=C/C=C(\C)C(=O)NC(=CC1=O)C2=O` [17-AGG, 3 S,5S,6R,7S,8E,10R,11S,12E,14E)-21-(allylamino)-6-hydroxy-5,11-dimethoxy-3,7,9,15-tetramethyl-16,20,22-trioxo-17-azabicyclo[16.3.1]docosa-8,12,14,18,21-pentaen-10-yl] carbamate], the ciliation [1] was “did not increase”, the IGF-IRβ levels [2] was “reduced” and the S6 phosphorylation [2] was “reduced”.
